The source of these data is patent US11957735B2, “Releasable GLP-1 conjugates” (QuiaPEG Pharmaceuticals AB, priority 2018, dated 2024).

One may read the half-life as the time needed for the level to fall by half in the phase considered.

This data set is described as follows: pH-triggered hydrolysis (T1/2) in TRIS buffer at 37° C., HPLC with AZT internal reference. It counts as physicochemical. Conditions: pH 8, hydrolysis of aminouridine carbamate, process of Example 1. As to the method: In the following experiment, the T1/2 at pH 8 is calculated to be approx. 11 h, which translates to 44 h at pH 7.4 (factor 4×). ˜1 mg conjugate was dissolved in a volume of 20% MeCN in water. An appropriate amount of azidothymidine (AZT) was added as an internal reference and the hydrolysis was started by addition of a volume of 0.3 M TRIS buffer solution at pH 8.0. The reaction mixture was then kept at 37° C. 30 μL aliquots were taken at each time point and acidified by addition of 20 μL 1 M AcOH before injection to HPLC.

SMILES strings stand for the structures.

`O=C(NC1C(O)[C@@H](CO)O[C@H]1n1ccc(=O)[nH]c1=O)OCC(c1ccccc1)c1ccccc1` (stereo partly shown) [compound 1] had a half-life of 12 days.
